The record followed here is US20240409557A1, “5,6-FUSED AND 6,6-FUSED BICYCLIC ALCOHOLS AND ETHERS AND COMPOSITIONS FOR USE AS 15-PROSTAGLANDIN DEHYDROGENASE MODULATORS” (AMGEN INC., priority 2023, published 2024).

The target in test [1] is T1, human recombinant 15-PGDH (Homo sapiens, UniProt P15428).
T1 sequence (P15428 1-266): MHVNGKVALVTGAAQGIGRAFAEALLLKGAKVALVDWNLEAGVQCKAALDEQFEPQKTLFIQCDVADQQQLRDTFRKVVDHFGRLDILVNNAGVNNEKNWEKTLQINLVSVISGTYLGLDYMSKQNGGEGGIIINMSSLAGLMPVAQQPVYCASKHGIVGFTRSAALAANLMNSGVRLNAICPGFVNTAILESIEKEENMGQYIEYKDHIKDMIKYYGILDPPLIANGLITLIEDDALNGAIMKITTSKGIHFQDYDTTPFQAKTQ
Kind of test: Recombinant 15-PGDH enzymatic inhibition assay (PGDH-Lumi, NADH signal). Conditions: recombinant 15-PGDH; 15 min pre-incubation, 60 min reaction with PGE2 and NAD+, NADH signal. Type of test: biochemical. The method in brief: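 Buffer 50 mM Tris pH 7.5 with 0.01% Tween-20 and […]; compound, 22 two-fold dilutions, pre-incubated with enzyme 15 min before substrate.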

Test [2] addresses T2, 15-PGDH in A549 cells (Homo sapiens, UniProt P15428).
T2 construct: endogenous in cells; host or cells: A549
T2 sequence (P15428 1-266): T1 sequence (P15428 1-266)
Kind of test: A549 cellular 15-PGDH assay (PGE2 accumulation, HTRF). Type of test: cell-based. Conditions: interleukin-stimulated, inhibitor 24 hrs, PGE2 by competitive HTRF, read-out: A549 Cell Assay IC50. Put shortly:
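Supernatant PGE2 was quantified by competitive HTRF, in which sample PGE2 blocks FRET between a europium cryptate-labelled antibody and labelled PGE2. It came from A549 epithelial cells induced with IL-13. IC50s were calculated from the inversely proportional signal.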
In general terms: TR-FRET usually uses a lanthanide donor and a delayed reading to cut background.

As a reminder, the IC50 is the concentration at which inhibition is half-maximal. `Cn1cc2cc(-c3ccc4cc([C@@H](O)C(F)(F)F)sc4n3)cnc2n1` (single isomer, unassigned) [Compound B23S]: the IC50 was 121 nM in test [1] and 19.2 nM in test [2].

Consider `Cn1cc2cc(-c3ccc4cc(C5(O)CC6(CCCCC6)C5)sc4n3)cnc2n1` [Compound C52, 2-(6-(2-methyl-2H-pyrazolo[3,4-b]pyridin-5-yl)thieno[2,3-b]pyridin-2-yl)spiro[3.5]nonan-2-ol], for which the IC50 in test [1] came out at 0.361 nM; in test [2] it was 0.0938 nM.

As to `Cn1cc2cc(-c3ccc4cc([C@@H](O)[C@H]5C[C@@H](C(F)(F)F)C5)sc4n3)cnc2n1` (single isomer, unassigned) [Compound B84SC], the IC50 in test [1] came to 1.53 nM; in test [2], 1.45 nM.

For `Cn1cc2cc(-c3ccc4cc(C(O)C5CCC(F)(F)CC5)sc4n3)cnc2n1` (stereo not drawn) [Compound B31, (4,4-difluorocyclohexyl)(6-(2-methyl-2H-pyrazolo[3,4-b]pyridin-5-yl)thieno[2,3-b]pyridin-2-yl)methanol], the values for the IC50 in test [1] and in test [2] were 0.42 nM and 0.553 nM, respectively.

On to `CC(O)c1cc2ccc(-c3cnc4nn(C)cc4c3)nc2s1` (stereo not drawn) [Compound B25, 1-(6-(2-methyl-2H-pyrazolo[3,4-b]pyridin-5-yl)thieno[2,3-b]pyridin-2-yl)ethanol], for which the IC50 in test [1] came to 5.85 nM; in test [2], 16.4 nM.

On to `Cn1cc2cc(-c3ccc4cc([C@@H](O)C5CC5)sc4n3)cnc2n1` (single isomer, unassigned) [Compound B16S], for which the IC50 turned out to be 27 nM in test [1] and 9.58 nM in test [2].

On to `Cn1cc2cc(-c3ccc4ccc([C@@H](O)C5CC(F)(F)C5)cc4n3)cnc2n1` (single isomer, unassigned) [Compound D1S], for which the IC50 in test [1] was 1.17 nM; in test [2] it was 0.656 nM.

As for `Cn1cc2cc(-c3ccc4c(N)c([C@@H](O)C5CC(F)(F)C5)sc4n3)cnc2n1` (single isomer, unassigned) [Compound B95S], the IC50 in test [1] came out at 6.43 nM; in test [2] it was 9.46 nM.

Regarding `COCC[C@H](O)c1cc2ccc(-c3cnc4nn(C)cc4c3)nc2s1` (single isomer, unassigned) [Compound B29S], the figures for the IC50 in test [1] and in test [2] were 10.5 nM and 3.08 nM, respectively.

Consider `COCC[C@@H](O)c1cc2ccc(-c3cnc4nn(C)cc4c3)nc2s1` (single isomer, unassigned) [Compound B29R], for which the values for the IC50 in test [1] and in test [2] were 0.209 nM and 0.745 nM, respectively.

For the compound `Cn1cc2cc(-c3ccc4sc([C@]5(O)C[C@](C)(C#N)C5)cc4n3)cnc2n1` (single isomer, unassigned) [Compound C106T, trans-3-hydroxy-1-methyl-3-(5-(2-methyl-2H-pyrazolo[3,4-b]pyridin-5-yl)thieno[3,2-b]pyridin-2-yl)cyclobutanecarbonitrile], the IC50 was 24.2 nM in test [1] and 45.2 nM in test [2].

Turning to `Cc1cn2cc(-c3ccc4cc(C5(O)CC(F)(F)C5)sc4n3)cnc2n1` [Compound C45, 3,3-difluoro-1-(6-(2-methylimidazo[1,2-a]pyrimidin-6-yl)thieno[2,3-b]pyridin-2-yl)cyclobutanol], the IC50 in test [1] is 1.68 nM; in test [2], 1.35 nM.

Regarding `Cn1cnc(-c2ccc3cc(C(O)C4CC(F)(F)C4)sc3n2)cc1=O` (stereo not drawn) [Compound B49, 6-(2-((3,3-difluorocyclobutyl)(hydroxy)methyl)thieno[2,3-b]pyridine-6-yl)-3-methylpyrimidin-4(3H)-one], the IC50 came to 0.608 nM in test [1] and 0.739 nM in test [2].

Take `OC1(c2cc3ccc(-c4ccc5oncc5c4)nc3s2)CC(F)(F)C1` [Compound C50, 1-(6-(1,2-benzoxazol-5-yl)thieno[2,3-b]pyridin-2-yl)-3,3-difluorocyclobutanol]: the IC50 in test [1] was determined as 34.7 nM; in test [2], 11.1 nM.

Turning to `CC(C)n1cc2cc(-c3ccc4cc([C@@H](O)C5CC(F)(F)C5)sc4n3)cnc2n1` (single isomer, unassigned) [Compound B64S], the IC50 in test [1] turned out to be 0.597 nM; in test [2] it was 0.483 nM.

As to `Cn1cc2cc(-c3ncc4cc(C5(O)CC6(CC(F)(F)C6)C5)sc4n3)cnc2n1` [Compound C116, 6,6-difluoro-2-(2-(2-methyl-2H-pyrazolo[3,4-b]pyridin-5-yl)thieno[2,3-d]pyrimidin-6-yl)spiro[3.3]heptan-2-ol], the IC50 amounted to 0.43 nM in test [1] and 1.95 nM in test [2].

Regarding `Cn1nnc2cc(-c3ncc4cc([C@]5(O)C[C@](C)(C#N)C5)sc4n3)cnc21` (single isomer, unassigned) [Compound C98T, trans-3-hydroxy-1-methyl-3-(2-(3-methyl-3H-[1,2,3]triazolo[4,5-b]pyridin-6-yl)thieno[2,3-d]pyrimidin-6-yl)cyclobutanecarbonitrile], the IC50 was found to be 1.73 nM in test [1] and 2.66 nM in test [2].

Take `CC[C@@H](O)c1cc2c(C3CC3)cc(-c3cnc4nn(C)cc4c3)nc2s1` (single isomer, unassigned) [Compound B13R]: the IC50 in test [1] was found to be 0.57 nM; in test [2], 3.2 nM.

In the case of `Cn1cc2cc(-c3cnc4cc([C@H](O)C5CC(F)(F)C5)sc4c3)cnc2n1` (single isomer, unassigned) [Compound B78R], the results for the IC50 in test [1] and in test [2] were 17 nM and 2.49 nM, respectively.

With `CCC[C@H](O)c1cc2ccc(-c3cnc4nn(C)cc4c3)nc2s1` (single isomer, unassigned) [Compound B27S], the IC50 in test [1] worked out at 12.3 nM; in test [2], 1.78 nM.

Regarding `Cn1cc2cc(-c3ccc4cc([C@]5(O)C[C@@H](F)C5)sc4n3)cnc2n1` [Compound C40C, cis-3-fluoro-1-(6-(2-methyl-2H-pyrazolo[3,4-b]pyridin-5-yl)thieno[2,3-b]pyridin-2-yl)cyclobutanol], the IC50 in test [1] stood at 0.742 nM; in test [2] it was 1.22 nM.

On to `Cn1cc2cc(-c3ccc4cc(C5(O)CC6(CCC6)C5)sc4n3)cnc2n1` [Compound C25, 2-(6-(2-methyl-2HI-pyrazolo[3,4-b]pyridin-5-yl)thieno[2,3-b]pyridin-2-yl)spiro[3.3]heptan-2-ol], for which the IC50 turned out to be 0.332 nM in test [1] and 0.14 nM in test [2].

Turning to `Cn1cc2cc(-c3ccc4sc([C@]5(O)C[C@@](C)(C#N)C5)cc4n3)cnc2n1` (single isomer, unassigned) [Compound C106C, cis-3-hydroxy-1-methyl-3-(5-(2-methyl-2H-pyrazolo[3,4-b]pyridin-5-yl)thieno[3,2-b]pyridin-2-yl)cyclobutanecarbonitrile], the IC50 in test [1] amounted to 16.7 nM; in test [2], 29.4 nM.

`Cn1cc2cc(-c3ccc4nc([C@]5(O)C[C@@H](OC(F)(F)F)C5)sc4n3)cnc2n1` [Compound C105C, cis-1-(5-(2-methyl-2H-pyrazolo[3,4-b]pyridin-5-yl)[1,3]thiazolo[5,4-b]pyridin-2-yl)-3-(trifluoromethoxy)cyclobutanol]: the IC50 in test [1] was 0.294 nM; in test [2], 0.788 nM.

In the case of `C[C@H]1CC[C@]1(O)c1cc2ccc(-c3cnc4nn(C)cc4c3)nc2s1` (single isomer, unassigned) [Compound C64RS], the figures for the 50% inhibitory concentration (IC50) in test [1] and in test [2] were 20.9 nM and 3.25 nM, respectively.

As for `Cc1nc2cc(-c3ccc4cc([C@@H](O)C5CC(F)(F)C5)sc4n3)ccc2o1` (single isomer, unassigned) [Compound B46S], the values for the IC50 in test [1] and in test [2] were 2.1 nM and 17.4 nM, respectively.

Regarding `CCCC(O)c1cc2ccc(-c3cnc4nn(C)cc4c3)nc2s1` (stereo not drawn) [Compound B27, 1-(6-(2-methyl-2H-pyrazolo[3,4-b]pyridin-5-yl)thieno[2,3-b]pyridin-2-yl)-1-butanol], the IC50 is 0.402 nM in test [1] and 0.597 nM in test [2].

`Cn1cc2cc(-c3ccc4cc([C@H](O)[C@@H]5CC5(F)F)sc4n3)cnc2n1` (single isomer, unassigned) [Compound B85RS]: the half-maximal inhibitory concentration (IC50) in test [1] came out at 0.379 nM; in test [2] it was 0.517 nM.

With `Cc1nc2ccc(-c3ccc4cc([C@H](O)C5CC(F)(F)C5)sc4n3)cc2o1` (single isomer, unassigned) [Compound B51R], the concentration for half-maximal inhibition (IC50) was 0.164 nM in test [1] and 0.357 nM in test [2].

Regarding `Cn1cc2cc(-c3ccc4cc(C5(O)CC6(CC6)C5)sc4n3)cnc2n1` [Compound C61, 5-(6-(2-methyl-2H-pyrazolo[3,4-b]pyridin-5-yl)thieno[2,3-b]pyridin-2-yl)spiro[2.3]hexan-5-o1], the figures for the IC50 in test [1] and in test [2] were 0.28 nM and 0.0594 nM, respectively.

Turning to `CC(C)n1ncc2cc(-c3ccc4cc([C@H](O)C5CC(F)(F)C5)sc4n3)cnc21` (single isomer, unassigned) [Compound B65R], the IC50 in test [1] stood at 0.381 nM; in test [2] it was 0.263 nM.

Take `Cn1cc2cc(-c3ccc4cc(C(O)C5CCCC5)sc4c3)cnc2n1` (stereo not drawn) [Compound B58, cyclopentyl(6-(2-methyl-2H-pyrazolo[3,4-b]pyridin-5-yl)-1-benzothiophen-2-yl)methanol]: the values for the IC50 in test [1] and in test [2] were 0.488 nM and 2.5 nM, respectively.

With `Cn1cc2cc(-c3ncc4cc(C5(O)CC(C)(C)C5)sc4n3)cnc2n1` [Compound C57, 3,3-dimethyl-1-(2-(2-methyl-2H-pyrazolo[3,4-b]pyridin-5-yl)thieno[2,3-d]pyrimidin-6-yl)cyclobutanol], the values for the IC50 in test [1] and in test [2] were 0.62 nM and 0.143 nM, respectively.
